Test [1] concerns Botrytis cinerea. In words: Agar well inhibition zone, Botrytis cinerea, mycelium plates (Bc1). The class given is cell-based. Also noted: key to inhibition zone Bc1: clear; diffuse; very diffuse; +: very weak. The note with it: 15 μl per well, 3 days at 25° C. As to the method:
(§1) Botrytis cinerea (Bc) grey mould
(§2) Each of the above mentioned 9 pathogens were separately innoculated into 100 ml of potato dextrose (PD) bouillon and shaken at 200 rpm at 25° C. for 7 days. The mycelium was harvested and homogenized for about 10 seconds in a Warring blender and 1-5 ml of the blended mycelium was transferred to petri dishes with a diameter of 14 cm. […] 20 ml of potato dextrose agar (PDA) having a temperature of 45° C. were poured into each of the petri dishes and thorougly mixed with the blended mycelium present therein. When the agar had solidified, wells of a diameter of 4 mm were punched in the agar, and 15 μl of test solutions containing varicus concentrations of compound Ia, Ib and IIa dissolved in ethanol was applied to each well. The plates were incubated for three days at 25° C. and the inhibition zones measured (in mm). […]

The test system of test [2] is Botrytis cinerea. In words: Agar well inhibition zone, Botrytis cinerea, plates made from spores (Bc2). Type of test: cell-based. The note with it: for appearance of Bc zones / time of incubation after which Bc zones could be seen: Bc plates; for zone of inhibition at 500 µg/mL: 0.5 mg/ml; for zone of inhibition at 1000 µg/mL: 1.0 mg/ml. As to the method:
as §1
(§3) Each of the above mentioned 9 pathogens were separately innoculated into 100 ml of potato dextrose (PD) bouillon and shaken at 200 rpm at 25° C. for 7 days. The mycelium was harvested and homogenized for about 10 seconds in a Warring blender and 1-5 ml of the blended mycelium was transferred to petri dishes with a diameter of 14 cm. […] 20 ml of potato dextrose agar (PDA) having a temperature of 45° C. were poured into each of the petri dishes and thorougly mixed with the blended mycelium present therein. When the agar had solidified, wells of a diameter of 4 mm were punched in the agar, and 15 μl of test solutions containing varicus concentrations of compound Ia, Ib and IIa dissolved in ethanol was applied to each well. The plates were incubated for three days at 25° C. and the inhibition zones measured (in mm).
(§4) The experiments were repeated and in the second run, Bc plates were made from Bc spores (the plates were termed Bc2) as such plates may result in a more uniform growth.

Test [3] deals with Pyrenophora teres. As to the kind of experiment: Agar well inhibition zone, Pyrenophora teres (Pt). Type of test: cell-based. Details: key to inhibition zone Pt: clear; diffuse; very diffuse; +: very weak. The note with it: 15 μl per well, 3 days at 25° C.; for zone of inhibition at 100 µg/mL / zone of inhibition at 500 µg/mL / zone of inhibition at 1000 µg/mL: Pyrenophora teres, 72 h; for zone of inhibition at 500 µg/mL: 0.5 mg/ml; for zone of inhibition at 1000 µg/mL: 1.0 mg/ml. As to the method:
Pyrenophora teres (Pt) net blotch disease
as §2

Test [4] concerns Phoma betae. In words: Agar well inhibition zone, Phoma betae (Pb). The class given is cell-based. The note with it: 15 μl per well, 3 days at 25° C.; for zone of inhibition at 500 µg/mL: 0.5 mg/ml. The protocol: Phoma betae (Pb) seedling black rot, black leg
as §2

For test [5], the system named is Ascochyta pisi. As to the kind of experiment: Agar well inhibition zone, Ascochyta pisi (Ap). Type of test: cell-based. Also noted: key to inhibition zone Ap: clear; diffuse; very diffuse; +: very weak. The following applies: 15 μl per well, 3 days at 25° C.; for zone of inhibition at 1000 µg/mL: 1.0 mg/ml. As to the method:
Ascochyta pisi (Ap) leaf, stem and pod rot
as §2

For test [6], the system named is Phoma lingam. In words: Agar well inhibition zone, Phoma lingam (Pl). The note with it: 15 μl per well, 3 days at 25° C.; for zone of inhibition at 1000 µg/mL: 1.0 mg/ml. The class given is cell-based. Also noted: key to inhibition zone P1: clear; diffuse; very diffuse; +: very weak. As to the method: Phoma lingam (Pl) canker and dry rot
as §2

Test [7] has as its system Alternaria alternata. As to the kind of experiment: Agar well inhibition zone, Alternaria alternata (Aa). The class given is cell-based. The note with it: 15 μl per well, 3 days at 25° C.; for zone of inhibition at 500 µg/mL: 0.5 mg/ml; for zone of inhibition at 1000 µg/mL: 1.0 mg/ml. The protocol: Alternaria alternata (Aa) black mould coverings, leaf spot
as §3, §4

The test system of test [8] is Sclerotinia sclerotiorum. As to the kind of experiment: Agar well inhibition zone, Sclerotinia sclerotiorum (Ss). Type of test: cell-based. Also noted: key to inhibition zone Ss: clear; diffuse; very diffuse; +: very weak. The note with it: 15 μl per well, 3 days at 25° C. The protocol: Sclerotinia sclerotiorum (Ss) white mould disease, stem rot
as §2

Test [9] has as its system Monilinia fructigena. In words: Agar well inhibition zone, Monilinia fructigena (Mf). Type of test: cell-based. The note with it: 15 μl per well, 3 days at 25° C.; for zone of inhibition at 500 µg/mL: 0.5 mg/ml; for zone of inhibition at 1000 µg/mL: 1.0 mg/ml. As to the method:
Monilinia fructigena (Mf) brown rot, fruit rot
as §2

Test [10] concerns plant pathogenic fungi. In words: In vitro fungicidal activity spectrum over the pathogens tested. Type of test: cell-based. As to the method:
The following pathogens were used:
as §3, §4

Test [11] relates to mouse peritoneal macrophage. In words: Mouse peritoneal macrophage assay, cellular ATP (viability). The class given is cell-based.
In test [12] the test system is mouse peritoneal macrophage. In words: Mouse peritoneal macrophage assay, chemiluminescence (phagocytosis). Type of test: cell-based.
The test system of test [13] is Botrytis cinerea. In words: Fungicidal activity in vivo against Botrytis cinerea on sprayed plants. The following applies: spray to run off, assessed after 6 days. The protocol:
Activity of the compounds Ia and Ib against Botrytis cinerea Host: Lycopersicon esculentum (tomato, var. First in Field) […] plants (5 weeks old) were sprayed to run off with liquid solutions using a handhold sprayer (Bink Bullows 900). The solution (70% EtOH) had different concentrations of the compounds Ia and Ib. The plants were kept 24 hours in a green house to dry before they were inoculated with a spore suspension containing 1×10^5 spores/ml in 25% grape juice. The inoculation was carried out with a handhold atomizer (Wagner, Pico Bel). The plants were then incubated (16 hours light (1000 lux) and 8 hours dark) at 15°-20° C. in clear polyethylene bags to raise the relative humidity to 95-100%. After 6 days the assessment was done.

In test [14] the test system is nerve growth factor. The following applies: cited from earlier work.
The mark [15] stands for this setting: Botrytis cinerea, 72 h, 0.1 mg/ml.
[16] abbreviates: 0.1 mg/ml, 15 μl per well, 3 days at 25° C., plates from spores.
Setting [17] is: Botrytis cinerea, 72 h, 15 μl per well, 3 days at 25° C., plates from spores.
The mark [18] stands for this setting: Neocamarosporium betae, 72 h, 0.1 mg/ml.
Setting [19] is: Ascochyta pisi, 72 h, 0.1 mg/ml.
Where [20] appears, read: Plenodomus lingam, 72 h, read-out: inhibition zone P1.

In brackets after ≈: the same amount, converted by molar mass.

For the compound `C[C@@H]1Cc2cc(O)cc(O)c2C(=O)O[C@H](C)CC(=O)OC[C@@H](O)CC(=O)O[C@H](C)Cc2cc(O)cc(O)c2C(=O)O[C@H](C)CC(=O)O1` [IIIa], the zone of inhibition at 100 µg/mL in test [1] (setting [15]) and in [3] (0.1 mg/ml) was 0 mm each time. Moreover, the “inhibition zone Bc2” value in test [2] (setting [16]) was 0 mm. Further, in [4] (0.1 mg/ml), the “inhibition zone Pb” value is listed as 0 mm. Further, the “inhibition zone Ap” value in test [5] (0.1 mg/ml) was 0 mm. Also, the “inhibition zone P1” value in test [6] (0.1 mg/ml) is given as 0 mm. Further, in test [7] (0.1 mg/ml), the “inhibition zone Aa” value came to 0 mm. The “inhibition zone Ss” value in test [8] (0.1 mg/ml) came to 0 mm. For the same compound, the “inhibition zone Mf” value in test [9] (0.1 mg/ml) is listed as 0 mm.
What is called IC50 is the point on the concentration scale where inhibition reaches its midpoint. For the compound `C[C@@H]1Cc2cc(O)cc(O)c2C(=O)O[C@H](C)CC(=O)OC[C@@H](O)CC(=O)O[C@H](C)Cc2cc(O)cc(O)c2C(=O)O[C@H](C)CC(=O)O1` [Compound IIa], the “inhibition zone Bc1” value in test [1] (0.1 mg/ml), in [1] (0.5 mg/ml) and in test [1] (1.0 mg/ml) was “+” throughout. Also, the “inhibition zone Bc2” value in test [2] (setting [16]) was 30d mm. Further, in test [2], the “appearance of Bc zones” value is on record as “very diffuse”. Also, the “time of incubation after which Bc zones could be seen” value in test [2] is listed as no less than 3 days. For the same compound, the zone of inhibition at 500 µg/mL in test [2] (setting [17]) stood at 37 mm; in test [3], 0 mm; in test [4] (Neocamarosporium betae, 72 h), 0 mm; in [5] (Ascochyta pisi, 72 h, 0.5 mg/ml), 0 mm; in test [6] (Plenodomus lingam, 72 h, 0.5 mg/ml, read-out: inhibition zone P1), 14 mm; in [7] (Alternaria alternata, 72 h) it was 0 mm. This compound came in with a zone of inhibition at 500 µg/mL in test [9] (Monilinia fructigena, 72 h) of 40 mm. The zone of inhibition at 1000 µg/mL was 45 mm in test [2] (setting [17]); 0 mm in test [3]; 0 mm in [5] (Ascochyta pisi, 72 h); 18 mm in test [6] (setting [20]); 0 mm in test [7] (Alternaria alternata, 72 h); 40 mm in test [9] (Monilinia fructigena, 72 h). Further, the “inhibition zone Pt” value in [3] (0.1 mg/ml) is “+”. Besides, the zone of inhibition at 100 µg/mL in test [4] (setting [18]) and in [5] (setting [19]) was 0 mm each time. Also, in test [6] (0.1 mg/ml), the “inhibition zone P1” value was determined as 31d mm. The “inhibition zone Ss” value in test [8] (0.1 mg/ml) is listed as 40d mm; in [8] (0.5 mg/ml) it was “+”; in test [8] (1.0 mg/ml), “+”. Besides, the “inhibition zone Mf” value in [9] (0.1 mg/ml) was 40v. Also, the “number of pathogens against which compound was active” value in test [10] (with respect to Bc only for the plate containing spores) was determined as 5 pathogens. For the same compound, the IC50 in test [11] and in [12] was less than 10 µg/mL each time.
In the case of `C[C@@H]1CC(=O)O[C@H](C)Cc2cc(O)cc(O)c2C(=O)O[C@H](C)CC(=O)O[C@H](C)Cc2cc(O)cc(O)c2C(=O)O[C@H](C)CC(=O)O1` [Compound Ib], the zone of inhibition at 100 µg/mL in test [1] (setting [15]) was 0 mm; in [2] (Botrytis cinerea, 72 h, 0.1 mg/ml, 15 μl per well, 3 days at 25° C., plates from spores) it was 0 mm; in test [3] (0.1 mg/ml) it was 0 mm; in test [4] (setting [18]) it was 0 mm; in test [5] (setting [19]), 0 mm; in test [6] (Plenodomus lingam, 72 h, 0.1 mg/ml, read-out: inhibition zone P1) it was 0 mm. Moreover, the zone of inhibition at 100 µg/mL worked out at 0 mm in test [7] (Alternaria alternata, 72 h, 0.1 mg/ml); 0 mm in test [8] (Sclerotinia sclerotiorum, 72 h, 0.1 mg/ml); 0 mm in test [9] (Monilinia fructigena, 72 h, 0.1 mg/ml). Further, the zone of inhibition at 500 µg/mL in test [1] (Botrytis cinerea, 72 h, 0.5 mg/ml) came to 0 mm; in [2] (setting [17]) it was 26 mm; in test [3], 17 mm; in test [4] (Neocamarosporium betae, 72 h) it was 17 mm; in test [7] (Alternaria alternata, 72 h), 15 mm; in test [8] (Sclerotinia sclerotiorum, 72 h, 0.5 mg/ml) it was 0 mm. The zone of inhibition at 500 µg/mL in [9] (Monilinia fructigena, 72 h) stood at 0 mm. The zone of inhibition at 1000 µg/mL in test [1] (Botrytis cinerea, 72 h, 1.0 mg/ml) came out at 0 mm; in test [2] (setting [17]) it was 30 mm; in test [3], 33 mm; in test [4] (Neocamarosporium betae, 72 h, 1.0 mg/ml) it was 20 mm; in [5] (Ascochyta pisi, 72 h), 15 mm; in test [6] (setting [20]), 12 mm. The zone of inhibition at 1000 µg/mL in test [7] (Alternaria alternata, 72 h) came to 17 mm; in test [8] (Sclerotinia sclerotiorum, 72 h, 1.0 mg/ml), 0 mm; in test [9] (Monilinia fructigena, 72 h), 25 mm. Further, the “appearance of Bc zones” value in [2] is “very clear”. In addition, the “time of incubation after which Bc zones could be seen” value in [2] is listed as no more than 2 days. Further, in test [5] (0.5 mg/ml), the “inhibition zone Ap” value is listed as “+”. For the same compound, the “inhibition zone P1” value in test [6] (0.5 mg/ml) is listed as “+”. The activity spectrum result in test [10] (all pathogens tested, Table 2) was “active, to a higher or lower degree, towards all of the pathogens tested”. In addition, the protection entry in test [13] (36 ppm) and in test [13] (360 ppm) was “approx. 50%” throughout. The IC50 in test [11] and in test [12] was 6 µg/mL (≈ 9.28 µM) in each case.
As to `CC1Cc2cc(O)cc(O)c2C(=O)OC(C)CC(=O)OC(C)Cc2cc(O)cc(O)c2C(=O)OC(C)CC(=O)OC(CO)CC(=O)O1` (centres unmarked) [NG-012], in test [14], the “nerve growth factor potentiation” value is recorded as “nerve growth factor potentiator”.

The values above are taken from US5641804A, “Fungicidal compound comprising a cyclic polylactone” (Novo Nordisk A/S, priority 1992, dated 1997).
